Measurements published in patent EP4796551A1, “ZWITTERIONIC PHOSPHOLIPID COMPOUND AND LIPID NANOPARTICLE CONTAINING THE SAME” (National University Corporation Hokkaido University, priority 2023, dated 2025).

How the values were obtained:
[1] = Particle size, PDI and ζ-potential of mRNA-LNP (Zetasizer Nano ZS); assay type: physicochemical; conditions: mRNA-LNP formulation phospholipid:CL4F6:Chol:PEG-DMG 10:50:40:1.0, Fluc mRNA
Method: (§1) Ethanol solutions containing each phospholipid, CL4F6, Chol, and PEG2000-dimirystoylglycerol (PEG-DMG) at the molar ratio of 10:50:40:1.0 were prepared at the total lipid concentration of 16 mM. For fluorescent labeling of LNPs, 0.5 mol% of DiI or DiR was added to the above solutions. The firefly luciferase (Fluc)-encoding mRNA (TriLink) was dissolved in a 25 mM acetate buffer (pH 4.0). LNPs were prepared by mixing the lipids in ethanol and RNA in an aqueous solution using an iLiNP device at a total flow rate (TFR) of 0.5 mL/min and a flow rate ratio (FRR) (RNA flow rate/lipid flow rate) of 3. The nitrogen to phosphate (N/P) ratio was adjusted to 6. Syringe pumps (Harvard apparatus) were used to control the flow rate of the solutions. The resulting LNP solutions were then dialyzed for 2 hours or more at 4 °C against phosphate buffered saline without Ca^2+ and Mg^2+ (PBS(-)) using Spectra/Por 4 dialysis membranes (molecular weight cut-off 12,000-14,000 Da, Spectrum Laboratories). The LNP solutions were concentrated by ultrafiltration using an Amicon Ultra-15 unit (MWCO 100 kDa, Millipore) as needed.
(§2) The ζ-average particle size, polydispersity index (PDI), and ζ-potential of the LNPs were measured by means of a Zetasizer Nano ZS ZEN3600 instrument (Malvern Instruments). The encapsulation efficiency and total concentration of mRNA were measured by a Ribogreen assay according to a conventional method.

[2] = Ribogreen assay, mRNA encapsulation efficiency of LNP; assay type: physicochemical; conditions: mRNA-LNP formulation phospholipid:CL4F6:Chol:PEG-DMG 10:50:40:1.0, Fluc mRNA
Method: as §1, §2

[3] = Lipid polymorphism by 31P NMR method (mixtures with POPC); assay type: physicochemical
Method: In order to examine the interaction between DOPE-Cx and PC and characteristics thereof, lipid polymorphism of the lipid suspension was evaluated by a ^31P NMR method. Since the rotational motion of lipid molecules in a lamellar phase which is a planar structure and a (inverted) hexagonal phase which is a tubular structure receives different restrictions respectively, a specific ^31P NMR spectrum is provided by chemical shift anisotropy. Specifically, the lamellar phase produces a broad […] peak, and the (inverted) hexagonal phase produces a broad […] peak.
First, DOPE or DOPE-C8 and 1-palmitoyl-2-oleoyl-sn-glycero-3-phosphocholine (POPC) were mixed at a predetermined ratio in 400 µL of chloroform (total lipid 16 µmol), and the solvent was removed by a rotary evaporator to form a lipid membrane. The lipid membrane was hydrated with 500 µL of 20 mM HEPES buffer (pH 7.4, 130 mM NaCl) at 60°C. Then, the lipid dispersion was transferred to an NMR tube, and a ^31P NMR spectrum at room temperature was measured by a conventional method using an ECX 400P spectrometer (JEOL Ltd.).

liver [4] = assay: mRNA introduction ability: luciferase activity in the liver after intravenous Fluc mRNA-LNP; assay type: in vivo, BALB/c mice; conditions: 0.01 mg RNA/kg, livers collected 6 hours later
Method: as §1, with “The resulting LNP solutions were then dialyzed for 2 hours or more at 4 °C against phosphate buffered saline without Ca^2+ and Mg^2+ (PBS(-)) using Spectra/Por 4 dialysis membranes (molecular weight cut-off 12,000-14,000 Da, Spectrum Laboratories). The LNP solutions were concentrated by ultrafiltration using an Amicon Ultra-15 unit (MWCO 100 kDa, Millipore) as needed.” left out
The mRNA-LNP formulations prepared in the above item (2) were intravenously administered to BALB/c mice at a dose of 0.01 mg RNA/kg, and the livers were collected by a conventional method 6 hours later. […] The supernatant was collected, and […] was measured by a luminometer (Luminescencer-PSN, ATTO Corporation) using Luciferase Assay System (Promega). The protein concentration was determined using a BCA protein assay kit (Pierce). Fluc activity was expressed as relative light units (RLU) per 1 mg of protein.

liver [5] = assay: EGFP expression in the liver after intravenous EGFP mRNA-LNP (CLSM); assay type: in vivo, BALB/c mice; conditions: Fig. 5, LNP containing the phospholipid, 1 mg RNA/kg, 24 hours later, compared with DSPC or DOPE LNP
Method: Further, an mRNA-LNP formulation was prepared in the same manner as in the above item (2) except that mRNA encoding EGFP (TriLink) was used as mRNA, and it was intravenously administered to BALB/c mice at a dose of 1 mg RNA/kg. Then, 24 hours later, the liver was collected by a conventional method, and expression of EGFP was observed using a confocal laser scanning microscope (CLSM).

erythrocytes (RBCs) = assay: Membrane disruption ability of LNP (hemolytic activity); assay type: cell-based, BALB/c mice; conditions: pH 6.0, 37°C, 30 minutes, Fig. 6B
Method: In order to use as an index of endosomal escape efficiency of LNP, membrane disruption ability of LNP was evaluated using erythrocytes as a model biological membrane. Specifically, fresh erythrocytes (RBCs) were collected from BALB/c mice and suspended in a buffer solution (10 mM malic acid, 10 mM HEPES, 10 mM MES, and 120 mM NaCl) at pH 5.0, 6.0, or 7.4. The RBC suspension was mixed with the same amount of each LNP suspension (containing DOPE-C8, DOPE, or DSPC as phospholipid) and reacted at 37°C for 30 minutes. Then, the supernatant was collected, absorbance at 545 nm was measured, and hemoglobin leaked from the erythrocytes was quantified. As a positive control, a sample hemolyzed with 0.5 w/v% Triton X-100 was prepared, and as a negative control, a sample not containing LNP was prepared. The ratio of the absorbance of the test sample to the absorbance of the positive control was expressed as % hemolytic activity.

[6] = Lipid polymorphism by SAXS method; assay type: physicochemical; conditions: DOPE-C8 and POPC at a molar ratio of 1:1, Fig. 10
Method: In order to identify the phase of the lipid suspension obtained by mixing DOPE-C8 and POPC at a molar ratio of 1:1, measurement by a small-angle X-ray scattering (SAXS) method was performed by a conventional method using a NANO-Viewer apparatus (Rigaku Corporation).

[7] = lipid:POPC molar ratio 1:1, 20 mM HEPES pH 7.4, room temperature
[8] = lipid alone (lipid:POPC=1:0), 20 mM HEPES pH 7.4, room temperature

SMILES	Number average particle size (nm) ([1]; Table 1)	PDI ([1]; Table 1)	ζ-potential (mV) ([1]; Table 1)	ζ-average particle size (nm) ([1]; Table 1, N/P 6)	mRNA encapsulation rate % ([2]; Table 1) [%]	Number average particle size (nm) ([1]; Table 2)	PDI ([1]; Table 2)	ζ-average particle size (nm) ([1]; Table 2)	ζ-potential (mV) ([1]; Table 2)	mRNA encapsulation rate % ([2]; Table 2) [%]	lipid phase by 31P NMR spectrum [3, 7]	further results
CCCCCCCC/C=C\CCCCCCCCOC(=O)CCNCCOP(=O)(O)OC[C@@H](COC(=O)CCCCCCC/C=C\CCCCCCCC)OC(=O)CCCCCCC/C=C\CCCCCCCC [DOPE-C18:1, (R)-2,3-bis(oleoyloxy)propyl (2-((3-(((Z)-octadeca-9-ene-1-yl)oxy)-3-oxopropyl)ammonio)ethyl) phosphate]	56	0.18	-2.9	81	93.9	–	–	–	–	–	the ratio derived from the inverted hexagonal phase increased	–
CCCCCCCC/C=C\CCCCCCCC(=O)OC[C@H](COP(=O)(O)OCCNCCC(=O)OCC(CCC)CCCCC)OC(=O)CCCCCCC/C=C\CCCCCCCC (stereo partly drawn) [DOPE-C7_β3, (R)-2,3-bis(oleoyloxy)propyl (2-((3-oxo-3-((2-propylheptyl)oxy)propyl)ammonio)ethyl) phosphate]	–	–	–	–	–	61	0.08	79	-9.6	96.0	the ratio derived from the inverted hexagonal phase increased	–
CCCCCCCC/C=C\CCCCCCCC(=O)OC[C@H](COP(=O)(O)OCCN)OC(=O)CCCCCCC/C=C\CCCCCCCC [DOPE, 1,2-dioleoyl-sn-glycero-3-phosphoethanolamine, reference compound]	57	0.25	-2.5	88	93.0	67	0.13	95	-2.9	92.8	–	membrane disruption activity (hemolytic activity) (erythrocytes (RBCs)): higher membrane disruption activity than the LNP containing DSPC; lipid phase by 31P NMR spectrum [3, 8]: spectrum derived from the inverted hexagonal phase; lipid phase by 31P NMR spectrum ([3]; lipid:POPC=9:1, 20 mM HEPES pH 7.4, room temperature): transition to the lamellar phase occurred
CCCCCCCC/C=C\CCCCCCCC(=O)OC[C@H](COP(=O)(O)OCCNCCC(=O)OCC(CC)CCCC)OC(=O)CCCCCCC/C=C\CCCCCCCC (stereo partly drawn) [DOPE-C6_β2, (R)-2,3-bis(oleoyloxy)propyl (2-((3-((2-ethylhexyl)oxy)-3-oxopropyl)ammonio)ethyl) phosphate]	–	–	–	–	–	73	0.07	94	-5.0	95.7	–	luciferase activity in the liver (liver [4]; Figs. 3 and 4, LNP containing the phospholipid): highest activity

Second part, led by results:

Number average particle size (nm) ([1]; Table 1)	PDI ([1]; Table 1)	ζ-potential (mV) ([1]; Table 1)	ζ-average particle size (nm) ([1]; Table 1, N/P 6)	mRNA encapsulation rate % ([2]; Table 1) [%]	Number average particle size (nm) ([1]; Table 2)	PDI ([1]; Table 2)	ζ-average particle size (nm) ([1]; Table 2)	ζ-potential (mV) ([1]; Table 2)	mRNA encapsulation rate % ([2]; Table 2) [%]	SMILES	lipid phase by 31P NMR spectrum [3, 7]	further results
62	0.21	-5.6	94	92.6	–	–	–	–	–	CCCCCCCC/C=C\CCCCCCCC(=O)OC[C@H](COP(=O)(O)OCCNCCC(=O)OCCCCCCCC)OC(=O)CCCCCCC/C=C\CCCCCCCC [DOPE-C8, (R)-2,3-bis(oleoyloxy)propyl (2-((3-(octyloxy)-3-oxopropyl)ammonio)ethyl) phosphate]	sharp peak centered at 0 ppm	Number average particle size (nm) ([1]; Table 3): 55 nm; PDI ([1]; Table 3): 0.17; ζ-average particle size (nm) ([1]; Table 3): 80 nm; ζ-potential (mV) ([1]; Table 3): -12.8 mV; mRNA encapsulation rate % ([2]; Table 3): 97.6%; luciferase activity in the liver (liver [4]; Fig. 2, n=3, LNP containing the phospholipid): highest activity; expression of EGFP in the liver (liver [5]): significantly higher expression of EGFP; membrane disruption activity (hemolytic activity) (erythrocytes (RBCs)): higher membrane disruption activity than the LNP containing DSPC; lipid phase by 31P NMR spectrum ([3]; POPC content increased beyond 1:1, Fig. 7B): the peak derived from the lamellar phase became stronger in a POPC content-dependent manner; lipid phase by 31P NMR spectrum [3, 8]: spectrum derived from the inverted hexagonal phase; phase of the lipid suspension by SAXS [6]: Im3m type inverse bicontinuous cubic phase
48	0.18	-7.0	82	93.1	–	–	–	–	–	CCCCCCCC/C=C\CCCCCCCC(=O)OC[C@H](COP(=O)(O)OCCNCCC(=O)OCCCCCCCCCC)OC(=O)CCCCCCC/C=C\CCCCCCCC [DOPE-C10, (R)-2,3-bis(oleoyloxy)propyl (2-((3-(decyloxy)-3-oxopropyl)ammonio)ethyl) phosphate]	the ratio derived from the inverted hexagonal phase increased	–
59	0.25	-6.3	100	94.2	–	–	–	–	–	CCCCCCCC/C=C\CCCCCCCC(=O)OC[C@H](COP(=O)(O)OCCNCCC(=O)OCCCCCCCCCCCC)OC(=O)CCCCCCC/C=C\CCCCCCCC [DOPE-C12, (R)-2,3-bis(oleoyloxy)propyl (2-((3-(dodecyloxy)-3-oxopropyl)ammonio)ethyl) phosphate]	the ratio derived from the inverted hexagonal phase increased	–
–	–	–	–	–	71	0.21	112	-5.8	96.3	CCCCCCCC/C=C\CCCCCCCC(=O)OC[C@H](COP(=O)(O)OCCNCCC(=O)OCC(CCCC)CCCCCC)OC(=O)CCCCCCC/C=C\CCCCCCCC (stereo partly drawn) [DOPE-C8_β4, (R)-2,3-bis(oleoyloxy)propyl (2-((3-((2-butyloctyl)oxy)-3-oxopropyl)ammonio)ethyl) phosphate]	the ratio derived from the inverted hexagonal phase increased	–
